Where “and” joins values, the source holds several entries; their conditions need not be identical. Equal values may be shown once. Inconclusive results and toxic doses are left out. Rule for the calls: active = survival T/C of 150% or more; inactive = T/C below 125% in these data. Peptide text beside a SMILES is read from it.
Tested on: P388 leukemia ip, CD2F1 mice, survival T/C
Assay: NCI In Vivo Anticancer Drug Screen. Data for tumor model P388 Leukemia (intraperitoneal) in CD2F1 (CDF1) mice
Details: endpoint: median survival time, higher = longer survival
How it was run: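 Mice carrying the transplanted tumor received test compound or vehicle. Survival was recorded in each group, and the value is the treated-group measurement divided by that of the vehicle-treated control group.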

[1] = dose: 50.0 mg/kg/injection, schedule: Q01DX005 (ip), vehicle: saline
[2] = dose: 100.0 mg/kg/injection, schedule: Q01DX005 (ip), vehicle: saline

Measured: T/C

CCC1=C[C@H]2CN(CCc3c([nH]c4ccccc34)[C@@](C(=O)OC)(c3cc4c(cc3OC)N(C)[C@H]3[C@@](O)(C(=O)NC)[C@H](OC(C)=O)[C@]5(CC)C=CCN6CC[C@]43[C@@H]65)C2)C1
114 % of control and 203 % of control: dose: 0.13 mg/kg/injection, schedule: Q01DX009 (ip), vehicle: water
active: dose: 0.12 mg/kg/injection, schedule: Q04DX003 (ip), vehicle: water 151 % of control | dose: 0.25 mg/kg/injection, schedule: Q01DX009 (ip), vehicle: water 220 % of control and 192 % of control and 214 % of control | dose: 0.25 mg/kg/injection, schedule: Q04DX003 (ip), vehicle: water 187 % of control | dose: 0.5 mg/kg/injection, schedule: Q04DX003 (ip), vehicle: water 214 % of control | dose: 1.0 mg/kg/injection, schedule: Q04DX003 (ip), vehicle: water 232 % of control | dose: 2.0 mg/kg/injection, schedule: Q01DX001 (ip), vehicle: water 150 % of control | dose: 4.0 mg/kg/injection, schedule: Q01DX001 (ip), vehicle: water 154 % of control | dose: 8.0 mg/kg/injection, schedule: Q01DX001 (ip), vehicle: water 180 % of control
inactive: dose: 0.02 mg/kg/injection, schedule: Q01DX009 (ip), vehicle: water 102 % of control | dose: 0.03 mg/kg/injection, schedule: Q01DX009 (ip), vehicle: water 100 % of control | dose: 0.25 mg/kg/injection, schedule: Q01DX001 (ip), vehicle: water 110 % of control | dose: 0.5 mg/kg/injection, schedule: Q01DX001 (ip), vehicle: water 119 % of control | dose: 1.0 mg/kg/injection, schedule: Q01DX009 (ip), vehicle: water 87 % of control

CCOC(=O)C1(c2ccccc2)CCCN(C)CC1 (centres undefined)
inactive: dose: 25.0 mg/kg/injection, schedule: Q04DX003 (ip), vehicle: saline 107 % of control | dose: 50.0 mg/kg/injection, schedule: Q04DX003 (ip), vehicle: saline 107 % of control | dose: 100.0 mg/kg/injection, schedule: Q04DX003 (ip), vehicle: saline 98 % of control

NC(CCC(=O)O)C(=O)NC(CCC(=O)O)C(=O)O (stereo not drawn) (H-Glu-Glu-OH; configuration not given here)
inactive: [1] 97 % of control | [2] 103 % of control | dose: 200.0 mg/kg/injection, schedule: Q01DX005 (ip), vehicle: saline 104 % of control

CC1(C)C2CCC([CH2][Hg][Cl])C1C2 (centres undefined)
inactive: dose: 2.44 mg/kg/injection, schedule: Q01DX009 (ip), vehicle: saline with Tween-80 100 % of control | dose: 3.66 mg/kg/injection, schedule: Q01DX009 (ip), vehicle: saline with Tween-80 100 % of control | dose: 5.55 mg/kg/injection, schedule: Q01DX009 (ip), vehicle: other 113 % of control | dose: 5.55 mg/kg/injection, schedule: Q01DX009 (ip), vehicle: saline with Tween-80 100 % of control and 91 % of control | dose: 6.25 mg/kg/injection, schedule: Q04DX003 (ip), vehicle: other 105 % of control | dose: 8.33 mg/kg/injection, schedule: Q01DX009 (ip), vehicle: saline with Tween-80 108 % of control and 95 % of control | dose: 12.5 mg/kg/injection, schedule: Q01DX009 (ip), vehicle: other 86 % of control | dose: 12.5 mg/kg/injection, schedule: Q04DX003 (ip), vehicle: other 100 % of control | dose: 25.0 mg/kg/injection, schedule: Q04DX003 (ip), vehicle: other 100 % of control

Cc1ccc(NC(=O)c2cc3ccccc3c(N=Nc3ccccc3O)c2O)c(C)c1
inactive: dose: 60.0 mg/kg/injection, schedule: Q01DX005 (ip), vehicle: saline with Tween-80 94 % of control | dose: 120.0 mg/kg/injection, schedule: Q01DX005 (ip), vehicle: saline with Tween-80 109 % of control | dose: 240.0 mg/kg/injection, schedule: Q01DX005 (ip), vehicle: saline with Tween-80 97 % of control

CN(C)CCNC(c1ccccc1)C(O)c1ccccc1 (centres undefined)
inactive: dose: 50.0 mg/kg/injection, schedule: Q01DX009 (ip), vehicle: Klucel (hydroxypropylcellulose) (HPC) 100 % of control | dose: 100.0 mg/kg/injection, schedule: Q01DX009 (ip), vehicle: Klucel (hydroxypropylcellulose) (HPC) 101 % of control

CCN(CC)CCOc1ccc(/C=C(\C)C(C)=O)cc1
inactive: [1] 94 % of control | [2] 90 % of control

O=C1C2(Cl)C(Cl)=C(Cl)C1(Cl)C1(Cl)C(Cl)=C(Cl)C(=O)C21Cl (centres undefined)
inactive: dose: 10.0 mg/kg/injection, schedule: Q01DX009 (ip), vehicle: saline with Tween-80 104 % of control | dose: 20.0 mg/kg/injection, schedule: Q01DX009 (ip), vehicle: saline with Tween-80 104 % of control | dose: 40.0 mg/kg/injection, schedule: Q01DX009 (ip), vehicle: saline with Tween-80 100 % of control

Reference: PubChem BioAssay AID330 (DTP/NCI, 2004)
